# Entries after “also recorded” stand apart in the source; their conditions may differ.
# Tests used:
# Assay type in all cases: in vivo, human
# IL-2 = assay: Serum IL-2 release on gluten challenge, Part C; conditions: first day of gluten challenge (Day 14)
# Description: Also, biomarker response upon treatment of CelD with IMU-856 was assessed. […] A wide inter-individual range of IL-2 response leads to large SD, especially in the placebo group. The inter-individual variance regarding IL-2 response decreases with increasing dose levels as illustrated in FIG. 8 (N=39/43 included in IL-2 analysis set. 3 patients not included in this analysis due to early termination and 1 incomplete IL-2 sampling due to site error. Methods used for IL-2 analysis: Milliplex® Human High Sensitivity T Cell Magnetic Bead Panel, 3 plex (Luminex®) and Simoa® CorPlex™ Human IL-2 Kit (Quanterix)).
# FIG. 8 illustrates the mean absolute change and maximum change in serum IL-2 (in pg/mL) from pre-gluten to 4 hours post-gluten on first day of gluten challenge (IL: interleukin; SD: standard deviation).
# [1] = system: patients with celiac disease; assay: Nutrient absorption (vitamin B12, zinc, ferritin), Part C; conditions: for increase in vitamin B12 levels: over the course of the trial; for mean increase in vitamin B12 levels / mean increase in zinc levels: baseline to Day 29
# Description: In Part A, healthy subjects were randomised to single ascending doses of IMU-856 (10 mg to 160 mg) or placebo. In Part B healthy subjects were randomised to multiple once-daily doses of IMU-856 (40, 80, and 160 mg) or placebo for 14 days. Part C randomised patients with celiac disease who were on a gluten-free diet to multiple once-daily doses of IMU-856 (80 mg and 160 mg) or placebo for 28 days; a once-daily gluten challenge (6 g) was introduced on Day 14 and ended on Day 28. 71 healthy subjects were enrolled in Part A and B (N=19 placebo and N=52 IMU-856) and 43 patients with CelD in Part C (N=14 placebo; N=14 for 80 mg, and N=15 for 160 mg). In Parts A and B, treatment-emergent adverse events (TEAEs) occurred in 24 (73%) and 15 (79%) of subjects receiving any dose of IMU-856 compared to 6 (50%) and 5 (71%) with placebo, respectively. […] In Part C, the most common adverse events with any dose of IMU-856 by preferred term were headache (13 [45%]), nausea (9 [31%]), diarrhoea (8 [28%]), and abdominal distension (7 [24%]). […] In Part C, the mean change in villous height from baseline to Day 29 with 80 mg and 160 mg was −20.9±34.8 μm, and −22.5±51.1 μm, respectively, and −60.3±52.2 μm with placebo. […] Mean change in plasma citrulline increased with 80 mg and 160 mg from baseline to Day 14 (2.4±6.2 and 6.1±5.9 μmol/L, respectively) and from baseline to Day 29 (2.8±7.6 and 2.2±5.3 μmol/L, respectively), but not with placebo (−2.7±5.6 and −4.0±6.5 μmol/L). […] Mean increase in zinc levels from baseline to Day 29 with 80 mg and 160 mg were 0.3±1.4 and 0.9±2.1 μmol/L compared to a mean decrease in placebo (−0.9±2.1 μmol/L). Gluten-induced symptoms were also attenuated by IMU-856. […]
# [2] = system: patients with celiac disease; assay: Phase Ib safety in patients with celiac disease (Part C)
# Description: (§1) In Part A, healthy subjects were randomised to single ascending doses of IMU-856 (10 mg to 160 mg) or placebo. In Part B healthy subjects were randomised to multiple once-daily doses of IMU-856 (40, 80, and 160 mg) or placebo for 14 days. Part C randomised patients with celiac disease who were on a gluten-free diet to multiple once-daily doses of IMU-856 (80 mg and 160 mg) or placebo for 28 days; a once-daily gluten challenge (6 g) was introduced on Day 14 and ended on Day 28. 71 healthy subjects were enrolled in Part A and B (N=19 placebo and N=52 IMU-856) and 43 patients with CelD in Part C (N=14 placebo; N=14 for 80 mg, and N=15 for 160 mg). In Parts A and B, treatment-emergent adverse events (TEAEs) occurred in 24 (73%) and 15 (79%) of subjects receiving any dose of IMU-856 compared to 6 (50%) and 5 (71%) with placebo, respectively. […] In Part C, the most common adverse events with any dose of IMU-856 by preferred term were headache (13 [45%]), nausea (9 [31%]), diarrhoea (8 [28%]), and abdominal distension (7 [24%]). […] In Part C, the mean change in villous height from baseline to Day 29 with 80 mg and 160 mg was −20.9±34.8 μm, and −22.5±51.1 μm, respectively, and −60.3±52.2 μm with placebo. […] Mean change in plasma citrulline increased with 80 mg and 160 mg from baseline to Day 14 (2.4±6.2 and 6.1±5.9 μmol/L, respectively) and from baseline to Day 29 (2.8±7.6 and 2.2±5.3 μmol/L, respectively), but not with placebo (−2.7±5.6 and −4.0±6.5 μmol/L). […] Mean increase in zinc levels from baseline to Day 29 with 80 mg and 160 mg were 0.3±1.4 and 0.9±2.1 μmol/L compared to a mean decrease in placebo (−0.9±2.1 μmol/L). Gluten-induced symptoms were also attenuated by IMU-856.
# FIG. 1 illustrates the flow chart of part C in celiac disease (CelD) designed as proof-of-concept study with a gluten challenge trial. Part C was planned to include a well-controlled celiac disease patient population: The patients were 100% seronegative, indicating absence of ongoing substantial gluten exposure and was performed at sites in Australia and New Zealand. Part C was designed to assess safety, tolerability and pharmacokinetics of IMU-856 and measured also histologic changes, blood biomarkers, nutrient uptake and disease-related symptoms.
# [3] = system: healthy subjects and patients with CelD; assay: Clinical safety, whole study
# Description: as §1
# [4] = Clinical pharmacokinetics
# Description: as §1
structure (smiles),measurement,setting,value
"Cn1c(COc2cc(C(F)(F)F)ccn2)nnc1[C@H]1CC[C@H](c2cnn([C@H]3CC[C@H](N4CC5(CCO5)C4)CC3)c2)CC1 [IMU-856, 6-(trans-4-(4-(trans-4-(4-methyl-5-(((4-(trifluoromethyl)pyridin-2-yl)oxy)methyl)-4H-1,2,4-triazol-3-yl)cyclohexyl)-1H-pyrazol-1-yl)cyclohexyl)-1-oxa-6-azaspiro[3.3]heptane]","gluten-induced acute immune response, IL-2 release",IL-2,"dampens gluten-induced acute immune response, as measured by IL-2 release, in a dose-dependent fashion; also recorded: dose-dependent lessening of acute immune response"
same,increase in vitamin B12 levels,[1]; 80 mg (N=11),45.8 pmol/L
same,mean increase in vitamin B12 levels,[1]; 80 mg,45.8 ± 94.4 pmol/L
same,mean increase in zinc levels,[1]; 80 mg,0.3 ± 1.4 µmol/L
same,increase in vitamin B12 levels,[1]; 160 mg (N=13),74.2 pmol/L
same,mean increase in vitamin B12 levels,[1]; 160 mg,74.2 ± 99.9 pmol/L
same,mean increase in zinc levels,[1]; 160 mg,0.9 ± 2.1 µmol/L
same,gluten-induced iron malabsorption (ferritin levels),[1]; Baseline to Day 29,ameliorates the gluten-induced iron malabsorption; also recorded: decreased to a lesser extent
same,nutrient absorption (vitamin B12),[1]; in words,enhances nutrient absorption in a dose-dependent manner
same,nutrient absorption (zinc),[1]; in words,enhances nutrient absorption in a dose-dependent manner; also recorded: A similar responses to treatment was observed for zinc
same,serious adverse events,[2],1
same,abdominal distension (number),[2]; any dose,7
same,abdominal distension (percentage),[2]; any dose,24%
same,diarrhoea (number),[2]; any dose,8
same,diarrhoea (percentage),[2]; any dose,28%
same,headache (number),[2]; any dose,13
same,headache (percentage),[2]; any dose,45%
same,nausea (number),[2]; any dose,9
same,nausea (percentage),[2]; any dose,31%
same,IMP-related serious or treatment-emergent adverse events,"[3]; human, in vivo",no investigational medicinal product (IMP)-related serious or treatment-emergent adverse events
same,dose-dependency in adverse events,"[3]; human, in vivo",nor was there any dose-dependency in adverse events
same,rates of TEAEs in non-disease related parameters versus placebo,"[3]; human, in vivo",comparable between the active treatment groups and placebo
same,safety and tolerability,"[3]; human, in vivo",safe and well-tolerated
same,"dose-limiting toxicities, systematic safety laboratory changes or deaths",[3]; whole study,"No dose-limiting toxicities, systematic safety laboratory changes or deaths"
same,relation of serious adverse events to IMU-856,[3]; whole study,unrelated to IMU-856
same,serious adverse events,[3]; whole study,Two
same,accumulation factor,[4]; daily dosing,low accumulation factor
same,"steady-state plasma concentrations, time to achievement",[4]; daily dosing,within the first week
same,half-life,"[4]; human, plasma, steady-state",17.4 to 21.5 h
same,Tmax,"[4]; human, plasma, steady-state, post-dose",2 to 3 h
same,steady-state trough levels,[4]; over the 14-day treatment period,stable steady-state trough levels
same,AUC dose dependence,[4]; steady-state,dose proportional increases
same,Cmax dose dependence,[4]; steady-state,dose proportional increases

# Source: US20260294885A1, “TREATMENT OF INFLAMMATORY CONDITIONS COMPRISING IMU-856” (IMMUNIC AG, priority 2023, published 2026)
